Active and inactive are the calls of the source. How the calls were made is not given here.
Tested on: CCRIS mutagenicity, Ames/micronucleus/aberration tests
Assay: CCRIS mutagenicity studies
[1] = Test System: AMES SALMONELLA TYPHIMURIUM, Strain/Indicator: TA98, Metabolic Activation: NONE, Method: PREINCUBATION
[2] = Test System: AMES SALMONELLA TYPHIMURIUM, Strain/Indicator: TA98, Metabolic Activation: NONE, Method: STANDARD PLATE
[3] = Test System: AMES SALMONELLA TYPHIMURIUM, Strain/Indicator: TA100, Metabolic Activation: NONE, Method: PREINCUBATION
[4] = Test System: AMES SALMONELLA TYPHIMURIUM, Strain/Indicator: TA100, Metabolic Activation: NONE, Method: STANDARD PLATE
[5] = Test System: AMES SALMONELLA TYPHIMURIUM, Strain/Indicator: TA1535, Metabolic Activation: NONE, Method: PREINCUBATION

## Cc1ncc[nH]1
End Point: IN VIVO MICRONUCLEUS, Test System: BONE MARROW POLYCHROMATIC ERYTHROCYTES, Species: MOUSE, Strain/Sex: B6C3F1/MALE, Route: IP
  mutagenic call: inactive; negative
End Point: IN VIVO MICRONUCLEUS, Test System: BONE MARROW POLYCHROMATIC ERYTHROCYTES, Species: RAT, Strain/Sex: F344/N/MALE, Route: IP
  mutagenic call: inactive; negative
End Point: IN VIVO MICRONUCLEUS, Test System: PERIPHERAL BLOOD NORMOCHROMATIC ERYTHROCYTES, Species: MOUSE, Strain/Sex: B6C3F1/MALE, FEMALE, Route: ORAL (DIET)
  mutagenic call: active; positive
Test System: AMES SALMONELLA TYPHIMURIUM, Strain/Indicator: TA97, Metabolic Activation: HAMSTER, LIVER, S-9, AROCLOR 1254, Method: PREINCUBATION
  mutagenic call: inactive; negative
Test System: AMES SALMONELLA TYPHIMURIUM, Strain/Indicator: TA97, Metabolic Activation: NONE, Method: PREINCUBATION
  mutagenic call: inactive; negative
Test System: AMES SALMONELLA TYPHIMURIUM, Strain/Indicator: TA97, Metabolic Activation: RAT, LIVER, S-9, AROCLOR 1254, Method: PREINCUBATION
  mutagenic call: inactive; negative
Test System: AMES SALMONELLA TYPHIMURIUM, Strain/Indicator: TA98, Metabolic Activation: HAMSTER, LIVER, S-9, AROCLOR 1254 (10%), Method: STANDARD PLATE
  mutagenic call: inactive; negative
Test System: AMES SALMONELLA TYPHIMURIUM, Strain/Indicator: TA98, Metabolic Activation: HAMSTER, LIVER, S-9, AROCLOR 1254, Method: PREINCUBATION
  mutagenic call: inactive; negative
[1]
  mutagenic call: inactive; negative
[2]
  mutagenic call: inactive; negative
Test System: AMES SALMONELLA TYPHIMURIUM, Strain/Indicator: TA98, Metabolic Activation: RAT, LIVER, S-9, AROCLOR 1254 (10%), Method: STANDARD PLATE
  mutagenic call: inactive; negative
Test System: AMES SALMONELLA TYPHIMURIUM, Strain/Indicator: TA98, Metabolic Activation: RAT, LIVER, S-9, AROCLOR 1254, Method: PREINCUBATION
  mutagenic call: inactive; negative
Test System: AMES SALMONELLA TYPHIMURIUM, Strain/Indicator: TA100, Metabolic Activation: HAMSTER, LIVER, S-9, AROCLOR 1254 (10%), Method: STANDARD PLATE
  mutagenic call: inactive; negative
Test System: AMES SALMONELLA TYPHIMURIUM, Strain/Indicator: TA100, Metabolic Activation: HAMSTER, LIVER, S-9, AROCLOR 1254, Method: PREINCUBATION
  mutagenic call: inactive; negative
[3]
  mutagenic call: inactive; negative
[4]
  mutagenic call: inactive; negative
Test System: AMES SALMONELLA TYPHIMURIUM, Strain/Indicator: TA100, Metabolic Activation: RAT, LIVER, S-9, AROCLOR 1254 (10%), Method: STANDARD PLATE
  mutagenic call: inactive; negative
Test System: AMES SALMONELLA TYPHIMURIUM, Strain/Indicator: TA100, Metabolic Activation: RAT, LIVER, S-9, AROCLOR 1254, Method: PREINCUBATION
  mutagenic call: inactive; negative
Test System: AMES SALMONELLA TYPHIMURIUM, Strain/Indicator: TA1535, Metabolic Activation: HAMSTER, LIVER, S-9, AROCLOR 1254 (10%), Method: STANDARD PLATE
  mutagenic call: inactive; negative
Test System: AMES SALMONELLA TYPHIMURIUM, Strain/Indicator: TA1535, Metabolic Activation: HAMSTER, LIVER, S-9, AROCLOR 1254, Method: PREINCUBATION
  mutagenic call: inactive; negative
[5]
  mutagenic call: inactive; negative
Test System: AMES SALMONELLA TYPHIMURIUM, Strain/Indicator: TA1535, Metabolic Activation: NONE, Method: STANDARD PLATE
  mutagenic call: inactive; negative
Test System: AMES SALMONELLA TYPHIMURIUM, Strain/Indicator: TA1535, Metabolic Activation: RAT, LIVER, S-9, AROCLOR 1254 (10%), Method: STANDARD PLATE
  mutagenic call: inactive; negative
Test System: AMES SALMONELLA TYPHIMURIUM, Strain/Indicator: TA1535, Metabolic Activation: RAT, LIVER, S-9, AROCLOR 1254, Method: PREINCUBATION
  mutagenic call: inactive; negative
Test System: AMES SALMONELLA TYPHIMURIUM, Strain/Indicator: TA1537, Metabolic Activation: HAMSTER, LIVER, S-9, AROCLOR 1254 (10%), Method: STANDARD PLATE
  mutagenic call: inactive; negative
Test System: AMES SALMONELLA TYPHIMURIUM, Strain/Indicator: TA1537, Metabolic Activation: NONE, Method: STANDARD PLATE
  mutagenic call: inactive; negative
Test System: AMES SALMONELLA TYPHIMURIUM, Strain/Indicator: TA1537, Metabolic Activation: RAT, LIVER, S-9, AROCLOR 1254 (10%), Method: STANDARD PLATE
  mutagenic call: inactive; negative
Test System: AMES SALMONELLA TYPHIMURIUM, Strain/Indicator: TA1538, Metabolic Activation: HAMSTER, LIVER, S-9, AROCLOR 1254 (10%), Method: STANDARD PLATE
  mutagenic call: inactive; negative
Test System: AMES SALMONELLA TYPHIMURIUM, Strain/Indicator: TA1538, Metabolic Activation: NONE, Method: STANDARD PLATE
  mutagenic call: inactive; negative
Test System: AMES SALMONELLA TYPHIMURIUM, Strain/Indicator: TA1538, Metabolic Activation: RAT, LIVER, S-9, AROCLOR 1254 (10%), Method: STANDARD PLATE
  mutagenic call: inactive; negative
Test System: MOUSE LYMPHOMA, Strain/Indicator: L5178Y (TK+/TK-), Metabolic Activation: NONE, Method: SUSPENSION/PLATE
  mutagenic call: inactive; negative. reevaluation of results: inconclusive
Test System: MOUSE LYMPHOMA, Strain/Indicator: L5178Y (TK+/TK-), Metabolic Activation: RAT, LIVER, S-9, AROCLOR 1254, Method: SUSPENSION/PLATE
  mutagenic call: inactive; negative. reevaluation of results: inconclusive

## CCCCCCC(O)CCCCCCCCCCC(=O)O (centres undefined)
Test System: AMES SALMONELLA TYPHIMURIUM, Strain/Indicator: TA97, Metabolic Activation: NONE, Method: STANDARD PLATE
  mutagenic call: inactive; negative
Test System: AMES SALMONELLA TYPHIMURIUM, Strain/Indicator: TA97, Metabolic Activation: S-9, Method: STANDARD PLATE
  mutagenic call: inactive; negative
[2]
  mutagenic call: inactive; negative
[4]
  mutagenic call: inactive; negative
Test System: AMES SALMONELLA TYPHIMURIUM, Strain/Indicator: TA100, Metabolic Activation: S-9, Method: STANDARD PLATE
  mutagenic call: inactive; negative
Test System: AMES SALMONELLA TYPHIMURIUM, Strain/Indicator: TA102, Metabolic Activation: NONE, Method: STANDARD PLATE
  mutagenic call: inactive; negative
Test System: AMES SALMONELLA TYPHIMURIUM, Strain/Indicator: TA102, Metabolic Activation: S-9, Method: STANDARD PLATE
  mutagenic call: inactive; negative
Test System: E.COLI, Strain/Indicator: WP2 (PKM101), Metabolic Activation: NONE, Method: STANDARD PLATE
  mutagenic call: inactive; negative
Test System: E.COLI, Strain/Indicator: WP2 (PKM101), Metabolic Activation: S-9, Method: STANDARD PLATE
  mutagenic call: inactive; negative

## CC(=O)C(N=Nc1ccc(-c2ccc(N=NC(C(C)=O)C(=O)Nc3ccccc3)c(Cl)c2)cc1Cl)C(=O)Nc1ccccc1 (centres undefined)
Test System: AMES SALMONELLA TYPHIMURIUM, Strain/Indicator: TA98, Metabolic Activation: HAMSTER, LIVER, S-9, AROCLOR 1254 (10%), Method: PREINCUBATION
  mutagenic call: inactive; negative
[1]
  mutagenic call: inactive; negative
Test System: AMES SALMONELLA TYPHIMURIUM, Strain/Indicator: TA98, Metabolic Activation: RAT, LIVER, S-9, AROCLOR 1254 (10%), Method: PREINCUBATION
  mutagenic call: inactive; negative
Test System: AMES SALMONELLA TYPHIMURIUM, Strain/Indicator: TA100, Metabolic Activation: HAMSTER, LIVER, S-9, AROCLOR 1254 (10%), Method: PREINCUBATION
  mutagenic call: inactive; negative
[3]
  mutagenic call: inactive; negative
Test System: AMES SALMONELLA TYPHIMURIUM, Strain/Indicator: TA100, Metabolic Activation: RAT, LIVER, S-9, AROCLOR 1254 (10%), Method: PREINCUBATION
  mutagenic call: inactive; negative
Test System: AMES SALMONELLA TYPHIMURIUM, Strain/Indicator: TA1535, Metabolic Activation: HAMSTER, LIVER, S-9, AROCLOR 1254 (10%), Method: PREINCUBATION
  mutagenic call: inactive; negative
[5]
  mutagenic call: inactive; negative
Test System: AMES SALMONELLA TYPHIMURIUM, Strain/Indicator: TA1535, Metabolic Activation: RAT, LIVER, S-9, AROCLOR 1254 (10%), Method: PREINCUBATION
  mutagenic call: inactive; negative
Test System: AMES SALMONELLA TYPHIMURIUM, Strain/Indicator: TA1537, Metabolic Activation: HAMSTER, LIVER, S-9, AROCLOR 1254 (10%), Method: PREINCUBATION
  mutagenic call: inactive; negative
Test System: AMES SALMONELLA TYPHIMURIUM, Strain/Indicator: TA1537, Metabolic Activation: NONE, Method: PREINCUBATION
  mutagenic call: inactive; negative
Test System: AMES SALMONELLA TYPHIMURIUM, Strain/Indicator: TA1537, Metabolic Activation: RAT, LIVER, S-9, AROCLOR 1254 (10%), Method: PREINCUBATION
  mutagenic call: inactive; negative
Test System: AMES SALMONELLA TYPHIMURIUM, Strain/Indicator: TA1538, Metabolic Activation: RAT, LIVER, S-9, AROCLOR 1254, Method: STANDARD PLATE
  mutagenic call: inactive; negative

— PubChem BioAssay AID1259407 (Chemical Carcinogenesis Research Information System (CCRIS), 2018)
